Measurements taken from paper PMC11831560, “Development of the Pyrido[2,3-d]pyrimidin-7(8H)-one Scaffold toward Potent and Selective NUAK1 Inhibitors” (ACS Medicinal Chemistry Letters, 2025).
Where “and” joins values, the source holds several entries; their conditions need not be identical. Equal entries are not always repeated.

molecular target: T1, MARK4 (Homo sapiens, UniProt Q96L34); assay: ADP-Glo biochemical assay MARK4; settings: ADP-Glo assay; read-out: MARK4 pIC50 (converted)
T1 construct: purchased MRC PPU
T1 sequence (Q96L34 1-752): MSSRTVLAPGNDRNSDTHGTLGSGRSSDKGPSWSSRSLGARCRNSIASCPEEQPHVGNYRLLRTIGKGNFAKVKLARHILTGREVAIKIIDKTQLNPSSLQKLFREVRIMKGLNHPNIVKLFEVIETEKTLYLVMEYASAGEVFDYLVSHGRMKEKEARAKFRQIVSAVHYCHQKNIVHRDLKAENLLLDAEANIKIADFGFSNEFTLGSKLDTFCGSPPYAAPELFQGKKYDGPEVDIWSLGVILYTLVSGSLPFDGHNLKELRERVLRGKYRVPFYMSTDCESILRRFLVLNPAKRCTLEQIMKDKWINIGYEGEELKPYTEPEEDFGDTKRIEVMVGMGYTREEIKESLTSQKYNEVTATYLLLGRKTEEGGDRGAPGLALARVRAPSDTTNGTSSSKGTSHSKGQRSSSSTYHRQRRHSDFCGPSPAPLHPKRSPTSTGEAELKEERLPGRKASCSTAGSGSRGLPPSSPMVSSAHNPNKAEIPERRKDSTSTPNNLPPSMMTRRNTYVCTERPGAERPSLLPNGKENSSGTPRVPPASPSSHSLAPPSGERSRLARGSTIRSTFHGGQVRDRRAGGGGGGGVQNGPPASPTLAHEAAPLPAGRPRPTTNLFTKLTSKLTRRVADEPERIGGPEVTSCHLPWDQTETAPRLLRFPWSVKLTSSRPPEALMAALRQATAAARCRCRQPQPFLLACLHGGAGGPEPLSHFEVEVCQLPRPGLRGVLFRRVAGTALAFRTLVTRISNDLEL
Experimental: (§1) Biological experimental procedures
(§2) ADP-Glo biochemical assays
(§3) Protein kinase activity in the presence of inhibitor compounds was determined by ADP-Glo assay (Promega), as previously described.1,2 Compounds were serialised using a Labcyte Echo 520 and transferred to 384 well plates (Greiner 784201) followed by the addition 5 µL of substrate containing peptide and ATP at Km in buffer (see Table S6). 5 µL of purified protein was added and the plate was incubated for 60 minutes at room temperature (ng/well; see Table S6). 3 µL of assay mixture was transferred using an Integra Viaflo384 into a white low volume plate (Greiner 781904) prior to the addition of 3 µL of ADP-Glo Reagent™ for a further 40 minute incubation. After incubation with 6 µL of Kinase Detection Reagent for 30 minutes, plate luminescence was read (Pherastar FSX, BMG […]
(§4) 30 mM HEPES pH7.4, 3 mM MgCl2, 3 mM MnCl2, 1.2 mM DTT, 0.01% CHAPS
(§5) Table S6: Conditions for protein kinase ADP-Glo assays
(§6) ATP AT Peptide Peptide Enzyme Enzyme Assay Buffe Min.
(§7) Protein conc. P Peptide name conc. supplier amount supplier vol. r na […]
(§8) NUAK1 µM µM Sakamototide 50 µM Merck 6.7 ng PPU 10 µl A 6
(§9) A µM µM Sakamototide 100 µM Merck 1 ng PPU 10 µl B 2 […]
(§10) aMin. n: Minimum number of technical replicates per compound

Compound	IC50 [µM]
Cc1cc(=O)n(C2CCCC2)c2nc(Nc3ccc(N4CCN(C(C)C)CC4)cc3)ncc12 [Compound 5]	9.12

same assay, conditions: MARK4 IC50/NUAK1 IC50

Compound	MARK4 Fold selectivity IC50/NUAK1 IC50 [fold]
Cc1cc(=O)n(C2CCCC2)c2nc(Nc3ccc(N4CCN(C(C)C)CC4)cc3)ncc12 [Compound 5]	2042

molecular target: T2, MARK1 (Homo sapiens, UniProt Q9P0L2); assay: ADP-Glo biochemical assay MARK1; settings: ADP-Glo assay; read-out: MARK1 pIC50 (converted)
T2 construct: purchased MRC PPU
Experimental: as §1, §2, §3, §4, §5, §6, §7, §8, §9, §10

T2 sequence (Q9P0L2 whole entry): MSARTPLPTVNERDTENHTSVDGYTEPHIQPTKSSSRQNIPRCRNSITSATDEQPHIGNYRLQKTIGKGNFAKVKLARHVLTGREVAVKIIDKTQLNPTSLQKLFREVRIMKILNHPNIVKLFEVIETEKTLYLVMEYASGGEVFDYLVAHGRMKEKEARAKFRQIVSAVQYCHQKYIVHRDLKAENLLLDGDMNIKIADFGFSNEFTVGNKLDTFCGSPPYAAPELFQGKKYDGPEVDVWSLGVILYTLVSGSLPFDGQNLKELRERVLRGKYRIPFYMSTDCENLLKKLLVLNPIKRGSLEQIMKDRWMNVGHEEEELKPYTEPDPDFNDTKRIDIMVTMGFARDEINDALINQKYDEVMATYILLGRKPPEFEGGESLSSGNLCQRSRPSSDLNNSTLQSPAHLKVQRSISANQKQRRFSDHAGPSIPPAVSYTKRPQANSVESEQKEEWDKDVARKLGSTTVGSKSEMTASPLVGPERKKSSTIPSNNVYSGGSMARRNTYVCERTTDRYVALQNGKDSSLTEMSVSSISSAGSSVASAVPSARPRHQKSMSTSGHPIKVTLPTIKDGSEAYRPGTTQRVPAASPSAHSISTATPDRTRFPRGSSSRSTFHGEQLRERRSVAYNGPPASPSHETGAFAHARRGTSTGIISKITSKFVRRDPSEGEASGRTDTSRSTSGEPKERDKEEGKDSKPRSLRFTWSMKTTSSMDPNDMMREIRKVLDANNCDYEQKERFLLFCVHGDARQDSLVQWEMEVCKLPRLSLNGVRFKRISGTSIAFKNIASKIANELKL

Compound	IC50 [µM]
Cc1cc(=O)n(C2CCCC2)c2nc(Nc3ccc(N4CCN(C(C)C)CC4)cc3)ncc12 [Compound 5]	3.8

same assay, conditions: MARK1 IC50/NUAK1 IC50

Compound	MARK1 Fold selectivity IC50/NUAK1 IC50 [fold]
Cc1cc(=O)n(C2CCCC2)c2nc(Nc3ccc(N4CCN(C(C)C)CC4)cc3)ncc12 [Compound 5]	851

molecular target: T3, MARK2 (Homo sapiens, UniProt Q7KZI7); assay: ADP-Glo biochemical assay MARK2; settings: ADP-Glo assay; read-out: MARK2 pIC50 (converted)
T3 construct: purchased MRC PPU
Experimental: as §1, §2, §3, §4, §5, §6, §7, §8, §9, §10

T3 sequence (Q7KZI7 whole entry): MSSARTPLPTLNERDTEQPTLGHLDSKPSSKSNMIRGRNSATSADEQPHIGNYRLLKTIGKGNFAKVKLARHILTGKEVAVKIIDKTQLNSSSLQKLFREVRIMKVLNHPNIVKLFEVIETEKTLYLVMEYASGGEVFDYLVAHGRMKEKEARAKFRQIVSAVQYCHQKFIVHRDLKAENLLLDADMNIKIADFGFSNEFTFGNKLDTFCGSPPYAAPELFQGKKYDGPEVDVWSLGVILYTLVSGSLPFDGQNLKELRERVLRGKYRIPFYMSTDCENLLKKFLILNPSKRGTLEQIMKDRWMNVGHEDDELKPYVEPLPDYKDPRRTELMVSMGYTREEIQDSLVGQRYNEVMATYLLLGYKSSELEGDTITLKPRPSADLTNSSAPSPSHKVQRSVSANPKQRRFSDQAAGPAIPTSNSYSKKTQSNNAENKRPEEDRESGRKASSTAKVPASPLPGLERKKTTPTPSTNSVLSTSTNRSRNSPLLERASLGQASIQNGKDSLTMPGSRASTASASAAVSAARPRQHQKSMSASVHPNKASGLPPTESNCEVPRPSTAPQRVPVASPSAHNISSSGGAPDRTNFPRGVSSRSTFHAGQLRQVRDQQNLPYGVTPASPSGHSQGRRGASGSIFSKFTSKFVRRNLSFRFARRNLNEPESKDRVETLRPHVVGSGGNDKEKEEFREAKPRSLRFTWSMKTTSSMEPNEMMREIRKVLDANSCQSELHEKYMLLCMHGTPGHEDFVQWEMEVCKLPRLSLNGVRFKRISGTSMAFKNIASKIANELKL

Compound	IC50 [µM]
Cc1cc(=O)n(C2CCCC2)c2nc(Nc3ccc(N4CCN(C(C)C)CC4)cc3)ncc12 [Compound 5]	5.62

same assay, conditions: MARK2 IC50/NUAK1 IC50

Compound	MARK2 Fold selectivity IC50/NUAK1 IC50 [fold]
Cc1cc(=O)n(C2CCCC2)c2nc(Nc3ccc(N4CCN(C(C)C)CC4)cc3)ncc12 [Compound 5]	1259

molecular target: T4, AMPKA α1β2γ1 (Homo sapiens, UniProt O43741+P54619+Q13131); assay: ADP-Glo biochemical assay AMPKA; settings: ADP-Glo assay; read-out: AMPKA pIC50 (converted)
T4 construct: purchased MRC PPU
Experimental: as §1, §2, §3, §4, §5, §6, §7, §8, §9, §10

T4 sequence (Q13131 11-559 limits assumed): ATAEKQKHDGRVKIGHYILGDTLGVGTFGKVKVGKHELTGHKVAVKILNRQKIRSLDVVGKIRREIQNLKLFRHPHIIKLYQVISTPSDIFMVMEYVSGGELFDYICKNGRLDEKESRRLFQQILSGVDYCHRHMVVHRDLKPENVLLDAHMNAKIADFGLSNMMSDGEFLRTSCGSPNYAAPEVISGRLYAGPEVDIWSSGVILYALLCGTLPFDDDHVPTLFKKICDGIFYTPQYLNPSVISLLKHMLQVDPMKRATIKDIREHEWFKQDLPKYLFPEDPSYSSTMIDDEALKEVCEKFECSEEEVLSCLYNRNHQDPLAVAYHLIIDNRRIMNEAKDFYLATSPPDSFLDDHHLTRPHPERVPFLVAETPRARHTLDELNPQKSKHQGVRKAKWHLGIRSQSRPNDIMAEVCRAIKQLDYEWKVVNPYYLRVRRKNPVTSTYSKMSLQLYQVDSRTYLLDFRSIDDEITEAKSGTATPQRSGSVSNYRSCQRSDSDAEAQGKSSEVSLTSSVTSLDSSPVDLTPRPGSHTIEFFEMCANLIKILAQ
T4 sequence (O43741 whole entry partner): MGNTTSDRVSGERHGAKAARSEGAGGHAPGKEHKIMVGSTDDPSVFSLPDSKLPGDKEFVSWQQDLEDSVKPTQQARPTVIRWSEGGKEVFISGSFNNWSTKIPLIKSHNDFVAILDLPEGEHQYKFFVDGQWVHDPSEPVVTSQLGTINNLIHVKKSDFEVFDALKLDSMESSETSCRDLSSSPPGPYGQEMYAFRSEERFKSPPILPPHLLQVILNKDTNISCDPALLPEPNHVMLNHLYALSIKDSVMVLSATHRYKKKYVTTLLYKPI
T4 sequence (P54619 whole entry partner): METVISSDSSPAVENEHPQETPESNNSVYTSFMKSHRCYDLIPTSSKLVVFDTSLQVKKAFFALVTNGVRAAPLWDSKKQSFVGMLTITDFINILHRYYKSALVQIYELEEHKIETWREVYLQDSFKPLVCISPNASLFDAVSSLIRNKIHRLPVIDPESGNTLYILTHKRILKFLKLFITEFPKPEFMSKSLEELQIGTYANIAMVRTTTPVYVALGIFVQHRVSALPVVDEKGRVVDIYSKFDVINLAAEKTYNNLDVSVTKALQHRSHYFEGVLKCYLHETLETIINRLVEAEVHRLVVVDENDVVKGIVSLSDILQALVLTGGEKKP

Compound	IC50 [µM]
Cc1cc(=O)n(C2CCCC2)c2nc(Nc3ccc(N4CCN(C(C)C)CC4)cc3)ncc12 [Compound 5]	1.07
COc1cc(Nc2ncc3c(C)cc(=O)n(C4CCCC4)c3n2)cc(OC)c1OC [Compound 15]	> 75.9
CN1C2CC1CN(c1ccc(Nc3ncc4ccn(CC5CCOC5)c4n3)cc1)C2 (stereo not drawn) [Compound 29]	5.62

molecular target: T5, AMPKA α1β2γ1 (Homo sapiens, UniProt Q13131); assay: ADP-Glo biochemical assay AMPKA; settings: AMPKA IC50/NUAK1 IC50
T5 construct: purchased MRC PPU
Experimental: as §1, §2, §3, §4, §5, §6, §7, §8, §9, §10

T5 sequence (Q13131 11-559 limits assumed): as the sequence (Q13131 11-559 limits assumed) above
T5 sequence (O43741 whole entry partner): as the sequence (O43741 whole entry partner) above
T5 sequence (P54619 whole entry partner): as the sequence (P54619 whole entry partner) above

Compound	AMPKA Fold selectivity IC50/NUAK1 IC50 [fold]
Cc1cc(=O)n(C2CCCC2)c2nc(Nc3ccc(N4CCN(C(C)C)CC4)cc3)ncc12 [Compound 5]	240
COc1cc(Nc2ncc3c(C)cc(=O)n(C4CCCC4)c3n2)cc(OC)c1OC [Compound 15]	> 12000
CN1C2CC1CN(c1ccc(Nc3ncc4ccn(CC5CCOC5)c4n3)cc1)C2 (stereo not drawn) [Compound 29]	708

tested on: not listed separately; assay: Microsomal stability, mouse; type: in vitro ADME; settings: mouse liver microsomes; read-out: MLM t1/2
Experimental: All single point assay determinations carried out in duplicate.
ADMET and PK experimental methods
Microsomal stability: analysis was performed by Cyprotex Discovery. […]

Compound	half-life at 0.75 h, 1 µM [min]	half-life at 1 µM [min]
Cc1cc(=O)n(C2CCCC2)c2nc(Nc3ccc(N4CCN(C(C)C)CC4)cc3)ncc12 [Compound 5]	2.2	–
CN1C2CC1CN(c1ccc(Nc3ncc4ccn(CC5CCOC5)c4n3)cc1)C2 (stereo not drawn) [Compound 29]	–	12.8

molecular target: T6, MARK3 (Homo sapiens, UniProt P27448); assay: ADP-Glo biochemical assay MARK3; settings: ADP-Glo assay
T6 construct: purchased MRC PPU
Experimental: as §1, §2, §3, §4, §5, §6, §7, §8, §9, §10

T6 sequence (P27448 whole entry): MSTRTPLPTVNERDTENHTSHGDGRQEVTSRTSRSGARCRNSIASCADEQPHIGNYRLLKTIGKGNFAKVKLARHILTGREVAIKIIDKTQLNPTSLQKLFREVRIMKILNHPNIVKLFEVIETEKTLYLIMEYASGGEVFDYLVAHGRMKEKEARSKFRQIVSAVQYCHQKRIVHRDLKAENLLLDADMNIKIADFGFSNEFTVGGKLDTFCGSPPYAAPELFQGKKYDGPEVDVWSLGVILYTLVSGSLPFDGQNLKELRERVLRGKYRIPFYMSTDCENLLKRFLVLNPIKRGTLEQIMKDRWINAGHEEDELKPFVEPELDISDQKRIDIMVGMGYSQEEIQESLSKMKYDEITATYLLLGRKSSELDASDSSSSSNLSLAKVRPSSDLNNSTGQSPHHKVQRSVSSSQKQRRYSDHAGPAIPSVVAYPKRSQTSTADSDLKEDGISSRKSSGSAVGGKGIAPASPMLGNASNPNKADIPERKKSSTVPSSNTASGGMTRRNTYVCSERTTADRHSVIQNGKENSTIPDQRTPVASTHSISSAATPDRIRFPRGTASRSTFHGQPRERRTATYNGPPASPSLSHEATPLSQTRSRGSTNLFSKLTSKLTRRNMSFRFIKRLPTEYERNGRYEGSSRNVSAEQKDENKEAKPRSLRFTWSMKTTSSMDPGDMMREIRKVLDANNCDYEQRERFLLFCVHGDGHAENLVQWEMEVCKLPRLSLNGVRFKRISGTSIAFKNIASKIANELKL

Compound	MARK3 pIC50
Cc1cc(=O)n(C2CCCC2)c2nc(Nc3ccc(N4CCN(C(C)C)CC4)cc3)ncc12 [Compound 5]	6.5
COc1cc(Nc2ncc3c(C)cc(=O)n(C4CCCC4)c3n2)cc(OC)c1OC [Compound 15]	5.8
CN1C2CC1CN(c1ccc(Nc3ncc4ccn(CC5CCOC5)c4n3)cc1)C2 (stereo not drawn) [Compound 29]	5.3

same assay, conditions: MARK3 IC50/NUAK1 IC50

Compound	MARK3 Fold selectivity IC50/NUAK1 IC50 [fold]
Cc1cc(=O)n(C2CCCC2)c2nc(Nc3ccc(N4CCN(C(C)C)CC4)cc3)ncc12 [Compound 5]	71
COc1cc(Nc2ncc3c(C)cc(=O)n(C4CCCC4)c3n2)cc(OC)c1OC [Compound 15]	288
CN1C2CC1CN(c1ccc(Nc3ncc4ccn(CC5CCOC5)c4n3)cc1)C2 (stereo not drawn) [Compound 29]	641

molecular target: T7, NUAK1 (Homo sapiens, UniProt O60285); assay: ADP-Glo biochemical assay NUAK1; set-up: purchased MRC PPU; settings: ADP-Glo assay
T7 sequence (O60285 1-661): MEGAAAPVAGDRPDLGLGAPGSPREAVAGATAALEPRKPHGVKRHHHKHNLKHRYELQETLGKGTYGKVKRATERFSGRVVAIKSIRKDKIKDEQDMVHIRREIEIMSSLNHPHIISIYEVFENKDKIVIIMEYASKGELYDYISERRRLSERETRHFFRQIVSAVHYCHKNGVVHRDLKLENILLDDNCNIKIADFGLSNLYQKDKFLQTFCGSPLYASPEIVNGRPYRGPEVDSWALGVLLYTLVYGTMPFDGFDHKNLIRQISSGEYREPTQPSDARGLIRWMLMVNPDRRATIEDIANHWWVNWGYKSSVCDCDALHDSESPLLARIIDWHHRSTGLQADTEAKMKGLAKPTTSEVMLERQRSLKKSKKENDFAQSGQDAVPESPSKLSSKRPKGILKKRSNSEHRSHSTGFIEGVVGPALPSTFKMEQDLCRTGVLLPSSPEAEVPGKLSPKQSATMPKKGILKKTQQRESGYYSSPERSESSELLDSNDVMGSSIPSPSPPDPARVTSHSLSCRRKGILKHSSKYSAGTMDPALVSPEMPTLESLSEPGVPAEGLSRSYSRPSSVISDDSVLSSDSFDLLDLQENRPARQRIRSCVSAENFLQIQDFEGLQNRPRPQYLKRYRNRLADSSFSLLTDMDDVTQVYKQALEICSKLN
Experimental: as §1, §2, §3, §4, §5, §6, §7, §8, §9, §10

Compound	NUAK1 pIC50
Cc1cc(=O)n(C2CCCC2)c2nc(Nc3ccc(N4CCN(C(C)C)CC4)cc3)ncc12 [Compound 5]	8.4
COc1cc(Nc2ncc3c(C)cc(=O)n(C4CCCC4)c3n2)cc(OC)c1OC [Compound 15]	8.21 and 8.2
CN1C2CC1CN(c1ccc(Nc3ncc4ccn(CC5CCOC5)c4n3)cc1)C2 (stereo not drawn) [Compound 29]	8.1

same assay, conditions: ADP-Glo assay; read-out: NUAK1 pIC50 (converted)

Compound	IC50 [nM]
Cc1cc(=O)n(C2CCCC2)c2nc(Nc3ccc(N4CCN(C(C)C)CC4)cc3)ncc12 [Compound 5]	4.47

molecular target: T7, NUAK1; assay: NanoBRET target engagement assay, HEK293 cells; settings: cell-based NanoBRET target engagement assay
Experimental: NanoBRET® target engagement assay
The binding of compounds to NUAK1 in intact cells was assessed using an NanoBRET® TE Intracellular Kinase Assay (Promega N2501). HEK293 cells transiently transfected with NanoLuc®- NUAK1 Fusion Vector (Promega NV1831) were incubated with 10 nL K5 tracer (provided in the kit, Promega N2501) and 40 nL of the test compounds in 100% DMSO in a white low volume non-binding 384 assay plate (Grenier Bio One 784904) for 90 min at 37 °C. After incubation, followed by cooling for 15 min at room temperature, 4 µL of the Intracellular TE Nano-Glo ® Substrate/Inhibitor (Promega N2160) was added to each well. The plate was read using a Pherastar FSX plate reader (BMG Labtech).
Minimum number of 2 technical replicates per compound.
Activity pIC50 values and standard error of the mean (SEM) were estimated using a 4-parameter fit (Dotmatics). The SEM for all reported data was 0.2 or lower. See Experimental Procedures for minimum number of replicates per compound. Each experiment included a Standard compound whose pIC50 value was compared to a quality control chart. If the Standard pIC50 value fell outside the range of pIC50 +/-3 standard deviation, then the experiment was invalidated. […]

Compound	NUAK1 cell TE pIC50
Cc1cc(=O)n(C2CCCC2)c2nc(Nc3ccc(N4CCN(C(C)C)CC4)cc3)ncc12 [Compound 5]	6.6
COc1cc(Nc2ncc3c(C)cc(=O)n(C4CCCC4)c3n2)cc(OC)c1OC [Compound 15]	6.6
CN1C2CC1CN(c1ccc(Nc3ncc4ccn(CC5CCOC5)c4n3)cc1)C2 (stereo not drawn) [Compound 29]	6.4
